Assays:
[1] = system: bone loss associated with OVX; assay: Whole femoral density in ovariectomized rats, ED50 for preventing bone loss; format: in vivo, Sprague-Dawley female rats; details: dosing 3 times a week for about 6 weeks, dose preventing about 50% of the bone loss, by interpolation; for ED50: Rattus norvegicus, 1008 h, read-out: ED50 (nmol/kg) for preservation of Femoral Mass
Description: In vivo experiments—Bilaterally ovariectomized and sham operated Sprague-Dawley female rats (150-170 g) from Harlan Laboratories (Indianapolis, Ind.) are housed on about a 12 hour dark/light cycle at 22° C. with ad libitum access to tap water and food (Purina Laboratory Rodent Diet 5001: 0.95% calcium, 0.67% total phosphorous, and 0.40% non-phytate phosphorous). The rats are randomly assigned into groups of about 6 to 10 animals. Compound administration begins about 4 days after surgery. […] All compounds are dissolved in 5% DMSO in corn oil. After about 6 weeks of dosing, animals are euthanized by carbon dioxide asphyxiation. Blood is collected by cardiac puncture, and uteri and both left and right femurs are removed. Fresh weights of uteri are obtained. All animal procedures and care are approved by the internal animal care and use committee to ensure compliance with NIH guidelines. Determination of whole femoral density.—Following removal, femurs are rubbed clean of soft tissue using gauze, and femur fresh weights are measured. Femurs are then submerged in distilled water under a vacuum for about 1 hour to completely hydrate the femurs. Densities are determined by Archimedes' Principle using the following formula: density=[mass of hydrated femur/(mass of hydrated femur-mass of hydrated femur submerged in water)]*density of water at ambient temperature. The dose that is effective in preventing about 50% of the bone loss associated with OVX (ED50) is determined by interpolation.

[2] = system: bone strength of femora from OVX rats; assay: Blunt indentation force to failure test of the distal femoral metaphysis; format: in vivo; details: FIG. 1
Description: FIG. 1 is a bar graph showing the distal femur strength of animals including those treated with an exemplary compound of the present invention.
Bone density is not necessarily the equivalent to bone strength, so an additional test (blunt indentation force of the distal metaphysis) is performed as well. With reference to FIG. 1, as a measure of bone mechanical competence, a blunt indentation force to failure test is performed on femora from about 6-week-old OVX rats. Sham operated animals are simultaneously tested as a control.

[3] = Binding to microcrystalline hydroxyapatite from dilute aqueous solution; details: for % Adsorbed: 10^-5 M in 99:1 H2O:DMSO, 0.5% (w/v) slurried HA in Tris, mixed about 4 minutes, UV of supernatant; for Binding Index: Tetracycline positive control = 100
Excerpt: The ability of the compounds of the present invention to act as bone targeted pharmaceuticals is estimated initially by determination of the ability of the compounds to be bound to microcrystalline hydroxyapatite [Ca10(PO4)6.OH2] (HA) from a dilute aqueous solution. Solutions of test compounds are constructed in about 99: 1, v/v, H2O:dimethylsulfoxide (DMSO) at 10^−5M. These solutions are taken for determination of electronic photometric absorption spectra scanning from λ=500-190 nm. Absorption maxima (λmax) and extinction coefficients (ε) are determined using the Beer-Lambert law. […] These solutions and slurries are mixed for about 4 minutes, then centrifuged for about 3 minutes at 10,000×g. Supernatants are taken for UV absorption spectrometry at previously determined λmax. Concentrations of test compound are determined and the extent of binding is calculated. Tetracycline is included as a positive control compound.

| Molecule | ED50 (nmol/kg) for preservation of Femoral Mass [1] [nmol/kg] | effect on bone strength (blunt indentation force to failure) ([2]; at a normal dose) [%] | % Adsorbed [3] [%] | Binding Index [3] | ED50 [1] [nmol/kg] | bone strength (blunt indentation force to failure, distal femur) [2] |
| --- | --- | --- | --- | --- | --- | --- |
| Raloxifene [reference compound] | 210 | ~30 | – | – | – | – |
| COc1ccc(NC(=O)CCC(=O)OC2CCC3C4CCc5cc(O)ccc5C4CCC23C)c(O)c1C(N)=O (centres unmarked) [BTE2-A2] | – | – | 91.7 | 178 | 19 | – |
| COc1ccc(NC(=O)CCCCC(=O)OC2CCC3C4CCc5cc(O)ccc5C4CCC23C)c(O)c1C(N)=O (centres unmarked) [BTE2-B2] | – | – | 99.1 | 192 | 9 | – |
| CC12CCC3c4ccc(O)cc4CCC3C1CCC2OC(=O)CCC(=O)Nc1ccc(O)c(C(N)=O)c1O (centres unmarked) [BTE2-A1] | – | – | 54 | 105 | 8 | – |
| NC(=O)c1c(O)ccc(N)c1O [3-amino-2,6-dihydroxybenzamide, reference compound] | – | – | 25.4 | 49 | – | – |
| C[C@]12CC[C@@H]3c4ccc(O)cc4CC[C@H]3[C@@H]1CC[C@@H]2O [17-β-estradiol, reference compound] | – | – | −4.0 | −8 | 10 | completely protect against osteopenia |
